{
  "source": "patent US20030004187A1",
  "about": "“Method for preventing dyskinesias” (priority 2001, published 2003)",
  "key": {"PD patients [1]": {"system": "PD patients", "details": "published observation in PD patients; cited from earlier work"}, "PD patients [2]": {"system": "PD patients", "details": "cited from earlier work"}, "6-OHDA-lesioned rats": {"system": "6-OHDA-lesioned rats", "details": "systemic administration; cited from earlier work"}, "MPTP-treated monkeys": {"system": "MPTP-treated monkeys", "details": "3 to 30 mg/kg, cited from earlier work"}, "[3]": {"system": "6-OHDA-lesioned hemiparkinsonian rat model", "details": "cited from earlier work"}, "MPTP monkey [4]": {"system": "MPTP monkey", "experiment": "Induction of L-Dopa-induced dyskinesias in de novo MPTP parkinsonian monkeys (dyskinetic score)", "format": "in vivo, cynomolgus (Macaca fascicularis) monkeys", "details": "for Dyskinesia induction (in words): 4 weeks treatment, L-Dopa/benserazide 100/25 mg alone or plus CI-1041 10 mg/kg per os, FIG. 1"}, "[5]": {"target": "NR1A/2B cloned NMDA receptors (Homo sapiens, UniProt Q05586+Q13224)", "sequence (Q13224 27-1484, other chains not shown)": "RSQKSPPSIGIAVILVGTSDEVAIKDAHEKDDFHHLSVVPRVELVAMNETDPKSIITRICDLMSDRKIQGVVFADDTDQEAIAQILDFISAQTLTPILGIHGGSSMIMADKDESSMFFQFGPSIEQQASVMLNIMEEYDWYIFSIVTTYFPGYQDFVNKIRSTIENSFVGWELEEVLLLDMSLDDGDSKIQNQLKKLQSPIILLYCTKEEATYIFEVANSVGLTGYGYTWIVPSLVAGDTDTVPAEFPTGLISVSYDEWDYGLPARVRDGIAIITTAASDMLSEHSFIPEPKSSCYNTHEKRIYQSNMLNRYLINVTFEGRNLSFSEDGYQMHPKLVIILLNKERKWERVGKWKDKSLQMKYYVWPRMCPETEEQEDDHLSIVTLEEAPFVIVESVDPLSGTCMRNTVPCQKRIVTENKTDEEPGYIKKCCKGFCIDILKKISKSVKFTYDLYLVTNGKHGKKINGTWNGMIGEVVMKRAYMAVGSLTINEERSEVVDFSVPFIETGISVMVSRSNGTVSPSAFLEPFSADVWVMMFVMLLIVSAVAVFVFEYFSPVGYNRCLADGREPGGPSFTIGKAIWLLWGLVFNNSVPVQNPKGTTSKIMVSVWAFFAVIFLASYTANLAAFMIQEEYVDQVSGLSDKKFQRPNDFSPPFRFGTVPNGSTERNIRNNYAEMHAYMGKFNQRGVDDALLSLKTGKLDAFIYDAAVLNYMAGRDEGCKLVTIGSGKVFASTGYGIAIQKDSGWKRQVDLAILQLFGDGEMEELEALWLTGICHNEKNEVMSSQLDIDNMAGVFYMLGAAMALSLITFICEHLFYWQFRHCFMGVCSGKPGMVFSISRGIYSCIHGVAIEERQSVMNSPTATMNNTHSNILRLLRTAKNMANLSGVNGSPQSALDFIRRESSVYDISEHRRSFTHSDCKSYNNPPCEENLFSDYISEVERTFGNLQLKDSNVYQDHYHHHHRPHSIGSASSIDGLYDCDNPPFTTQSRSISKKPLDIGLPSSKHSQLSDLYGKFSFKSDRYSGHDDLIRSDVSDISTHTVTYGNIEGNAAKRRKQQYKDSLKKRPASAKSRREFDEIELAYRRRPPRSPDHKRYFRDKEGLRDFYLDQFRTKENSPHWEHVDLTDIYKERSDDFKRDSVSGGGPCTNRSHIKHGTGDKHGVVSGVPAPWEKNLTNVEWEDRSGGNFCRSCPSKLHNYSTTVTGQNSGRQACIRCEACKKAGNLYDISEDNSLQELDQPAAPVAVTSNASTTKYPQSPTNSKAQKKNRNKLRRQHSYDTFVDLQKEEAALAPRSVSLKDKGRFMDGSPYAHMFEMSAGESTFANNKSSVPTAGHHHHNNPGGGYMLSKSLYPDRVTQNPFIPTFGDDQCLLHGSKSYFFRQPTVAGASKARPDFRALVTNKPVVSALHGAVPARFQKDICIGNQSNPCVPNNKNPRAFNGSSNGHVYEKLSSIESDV", "details": "cited from earlier work"}, "MPTP monkey [6]": {"system": "MPTP monkey", "experiment": "Side effects and stereotypies observed during 1-month treatment", "details": "CI-1041 10 mg/kg per os with L-Dopa", "procedure": "The experiments were performed in accordance with the standards of the Canadian Council on Animal care using eight female cynomolgus (Macaca fascicularis) monkeys weighing 3.0 to 3.5 kg. They were housed separately in individual observation cages equipped with an electronic motility monitoring system (Datascience, St. Paul, Minnesota) in a temperature-controlled room and exposed to a 12-hour light/dark cycle (lights on 6 AM-6 PM). They were fed once daily in the afternoon (certified primate chow and fruits), and water was provided ad libitum. […] The animals were scored several times a week using a disability scale described below, where the normal state extends from 0 to 2, and maximal disability is 16 points. […]\nThe severity of dyskinesias was also rated every 30 minutes for each body segment: the face, neck, trunk, arms, and legs in the following way: None=0; Mild=1; Moderate=2; Severe=3. The difference between mild, moderate, and severe dyskinesias for a given body segment is based on the assessment of the amplitude of the abnormal movements and the frequency (whether they are occasional, intermittent, or constant); each body segment being scored separately based on assessment of observation in the preceding half hour. […]"}, "MPTP monkey [7]": {"system": "MPTP monkey", "experiment": "Delay and duration of L-Dopa response", "format": "in vivo, cynomolgus (Macaca fascicularis) monkeys", "set-up": "Delay of L-Dopa response / Duration of L-Dopa response: unit not given here", "details": "for Delay of L-Dopa response / Duration of L-Dopa response: mean ± SEM"}, "MPTP monkey [8]": {"system": "MPTP monkey", "experiment": "Antiparkinsonian response, disability scale for MPTP monkey (parkinsonian score)", "format": "in vivo, cynomolgus (Macaca fascicularis) monkeys"}, "MPTP monkey [9]": {"system": "MPTP monkey", "experiment": "Locomotor activity by electronic motility monitoring system", "format": "in vivo, cynomolgus (Macaca fascicularis) monkeys", "details": "FIG. 2B; maintained during the 4 weeks"}},
  "note": "Where “and” joins values, the source holds several entries; their conditions need not be identical. Equal values may be shown once.",
  "data": [
    {"molecule": "CCCN(CCC)CCc1cccc2c1CC(=O)N2", "note": "[ropinirole]", "values": [
      {"measurement": "Sleep attacks", "setting": "PD patients [1]", "result": "episodes of sudden onset of sleep"}
    ]},
    {"molecule": "CCCN[C@H]1CCc2nc(N)sc2C1", "note": "[pramipexole]", "values": [
      {"measurement": "Sleep attacks", "setting": "PD patients [1]", "result": "episodes of sudden onset of sleep"}
    ]},
    {"molecule": "COc1ccc2c(c1)[C@]13CCCC[C@@H]1[C@H](C2)N(C)CC3", "note": "[dextromethorphan]", "values": [
      {"measurement": "L-Dopa-induced dyskinesias in PD patients", "setting": "PD patients [2]; human, in vivo", "result": "reduced L-Dopa-induced dyskinesias"}
    ]},
    {"molecule": "C[C@]12N[C@H](Cc3ccccc31)c1ccccc12", "note": "[MK-801]", "values": [
      {"measurement": "L-Dopa-induced motor fluctuations", "setting": "6-OHDA-lesioned rats", "result": "completely reversed and more interestingly prevented"}
    ]},
    {"molecule": "NC12CC3CC(CC(C3)C1)C2", "note": "[amantadine]", "values": [
      {"measurement": "L-Dopa-induced dyskinesias in PD patients", "setting": "PD patients [2]; human, in vivo", "result": "reduced L-Dopa-induced dyskinesias"},
      {"measurement": "Maintenance of beneficial effects on motor response complications after treatment initiation", "setting": "PD patients [2]; one study", "result": "at least 1 year"}
    ]},
    {"molecule": "O=c1[nH]c2ccc([S+]([O-])CCN3CCC(Cc4ccc(F)cc4)CC3)cc2o1", "note": "(centres unmarked) [CI-1041, 6-{2-[4-(4-fluoro-benzyl)-piperidin-1-yl]-ethanesulfinyl}-3H-benzooxazol-2-one]", "values": [
      {"measurement": "Alteration in the antiparkinsonian effects of L-Dopa", "setting": "MPTP-treated monkeys; in combination with L-Dopa", "result": "did not produce a consistent alteration"},
      {"measurement": "Antiparkinsonian activity when administered alone", "setting": "MPTP-treated monkeys", "result": "did not exhibit any antiparkinsonian activity"},
      {"measurement": "Contraversive rotation induced by L-Dopa", "setting": "[3]; peak rate and duration increased, maintained following 9 days of repeated co-administration", "result": "potentiated the contraversive rotation"},
      {"measurement": "Rotation induced by direct acting dopamine agonists SKF 38393 and quinpirole", "setting": "[3]; rat, in vivo", "result": "potentiated rotation"},
      {"measurement": "Rotation when given alone", "setting": "[3]; rat, in vivo", "result": "increased both contraversive and ipsiversive rotations"},
      {"measurement": "Dyskinesia induction (in words)", "setting": "MPTP monkey [4]; 10 mg/kg", "result": "prevented dyskinesias"},
      {"measurement": "Dyskinesia induction (in words)", "setting": "MPTP monkey [4]; listed as C-1041", "result": "completely prevented the induction of dyskinesias in three animals"},
      {"measurement": "Affinity, block of NR2B-containing NMDA receptors", "setting": "[5]; allosteric modulation site", "result": 24, "unit": "nM"},
      {"measurement": "Selectivity for NR1A/2B cloned NMDA receptors", "setting": "[5]", "result": "> 1000", "unit": "fold"},
      {"measurement": "Side effects / tolerability", "setting": "MPTP monkey [6]", "result": "well-tolerated and no emesis, ataxia, or hallucinations were observed"},
      {"measurement": "Effect of CI-1041 co-administration on delay and duration of the L-Dopa response (in words)", "setting": "MPTP monkey [7]; trend for delayed response in first 2 weeks", "result": "not significantly affected"}
    ]},
    {"molecule": "N[C@@H](Cc1ccc(O)c(O)c1)C(=O)O", "note": "[L-Dopa]", "values": [
      {"measurement": "Parkinsonian scores as compared to the control (in words)", "setting": "MPTP monkey [8]; FIG. 2A", "result": "significantly (P<0.01) lowered"},
      {"measurement": "Antiparkinsonian Efficacy (Min. Score), Mean ± SEM", "setting": "MPTP monkey [8]; group mean ± SEM, n=4, 28 days treatment", "result": "3.3 ± 0.2"},
      {"measurement": "Antiparkinsonian Efficacy", "setting": "MPTP monkey [8]; individual animal, grade in words, 28 consecutive days of daily oral treatment", "result": "Good"},
      {"measurement": "Antiparkinsonian Efficacy (Min. Score)", "setting": "MPTP monkey [8]; individual animal, minimum parkinsonian score, maximal disability 16, 28 days treatment", "result": "2.8 and 3.7 and 3.4 (2×)"},
      {"measurement": "Locomotion as compared to control (in words)", "setting": "MPTP monkey [9]", "result": "significant (P<0.01) increase in locomotion"},
      {"measurement": "Prevalence of dyskinesias", "setting": "PD patients [2]; human, in vivo", "result": "30-80%"},
      {"measurement": "Dyskinesia induction (in words)", "setting": "MPTP monkey [4]", "result": "moderate to severe"},
      {"measurement": "Persistent Dyskinesia (Max Score), Mean ± SEM", "setting": "MPTP monkey [4]; group mean ± SEM, n=4", "result": "7.1 ± 1.3"},
      {"measurement": "Persistent Dyskinesia", "setting": "MPTP monkey [4]; individual animal, Yes/None, 28 days treatment", "result": "Yes"},
      {"measurement": "Persistent Dyskinesia (Max Score)", "setting": "MPTP monkey [4]; individual animal, maximum dyskinetic score, maximal score 21", "result": "8.5 and 4 and 6 and 10"},
      {"measurement": "Delay of L-Dopa response", "setting": "MPTP monkey [7]; Day 7", "result": "47.3 ± 4.4^"},
      {"measurement": "Duration of L-Dopa response", "setting": "MPTP monkey [7]; Day 7", "result": "221.3 ± 46.0^"},
      {"measurement": "Delay of L-Dopa response", "setting": "MPTP monkey [7]; Day 14", "result": "59.5 ± 17.2"},
      {"measurement": "Duration of L-Dopa response", "setting": "MPTP monkey [7]; Day 14", "result": "189.3 ± 29.5^"},
      {"measurement": "Delay of L-Dopa response", "setting": "MPTP monkey [7]; Day 21", "result": "52.5 ± 10.3^"},
      {"measurement": "Duration of L-Dopa response", "setting": "MPTP monkey [7]; Day 21", "result": "222.5 ± 24.6^"},
      {"measurement": "Delay of L-Dopa response", "setting": "MPTP monkey [7]; Day 28", "result": "50 ± 5.8"},
      {"measurement": "Duration of L-Dopa response", "setting": "MPTP monkey [7]; Day 28", "result": "198.75 ± 25.5"}
    ]}
  ]
}
